Consider 4 compounds from patent US6706664B1, “Benzoxazole compounds, process for the preparation thereof and herbicides” (UBE Industries, Ltd., priority 1999, dated 2004).

The structures appear in SMILES notation.

Holding throughout (design): key: 0: normal development; 1: Less damaged; 2: Slightly damaged; 3: Moderately damaged; 4: Severely damaged; 5: All killed
One assay deals with young rice plant. The experiment in a line: Herbicidal test for paddy field. The conditions noted are these: paddy field pot, 500 g/ha dropwise at 1.5 leaf stage of barnyardgrass, 3 weeks, rank vs non-treated. In kind it is in vivo. As for the experimental part: (§1) Wagner pots, each having an area of 1/5000 are, were packed with Ube soil (alluvial soil) and planted with seeds or tubers of young rice plant, barnyardgrass, bulrush, flat sedge and monochoria. Then, the pots were filled with water to a depth of 3 cm.
(§2) Each wettable powder of the desired compounds (I) shown in Table 1 prepared in accordance with Example 2 was diluted with water containing a surfactant (0.05%) and subjected to dropwise addition treatment by using pipet so that an effective concentration of the compound (I) in each herbicide became 500 g/ha at 1.5 leaf stage of barnyardgrass.
(§3) These plants were controlled in a glass house at an average temperature of 25° C. for 3 weeks, and then herbicidal effects thereof were investigated.
(§4) The herbicidal effects are evaluated according to the following 6 ranks as compared with non-treated district.
(§5) (0: normal development, 1: Less damaged, 2: Slightly damaged, 3: Moderately damaged, 4: Severely damaged, 5: All killed).

The test system of the next assay is bulrush. The experiment in a line: Herbicidal test for paddy field. Type of assay: in vivo, Scrips juncoides. Conditions: paddy field pot, 500 g/ha dropwise at 1.5 leaf stage of barnyardgrass, 3 weeks, rank vs non-treated. As for the experimental part: as §1, §2, §3, §4, §5
For another assay, the system named is monochoria. Briefly: Herbicidal test for paddy field. The conditions noted are these: paddy field pot, 500 g/ha dropwise at 1.5 leaf stage of barnyardgrass, 3 weeks, rank vs non-treated. In kind it is in vivo, Monochoria vaginalis. Here is the method:
as §1, §2, §3, §4, §5

For assay [1], the system named is corn. The experiment in a line: Soil treatment test for upland field. The conditions noted are these: 500 g/ha, glass house 25° C., 3 weeks. Type of assay: in vivo. Put shortly: (§6)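 Pre-emergence: seeds sown in Ube alluvial soil in pots, then soil surface sprayed with wettable-powder formulation diluted in water with 0.05% surfactant at 500 g/ha. Plants kept in glasshouse at average 25° C for 3 weeks; injury scored 0 (normal) to 5 (all killed).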

The test system of the next assay is cotton. Briefly: Soil treatment test for upland field. In kind it is in vivo. Conditions: 500 g/ha, glass house 25° C., 3 weeks. Put shortly: as §6
The test system of assay [2] is solgum. Briefly: Soil treatment test for upland field. In kind it is in vivo. The conditions noted are these: 500 g/ha, glass house 25° C., 3 weeks. The method in brief: as §6
Another assay concerns soybean. Briefly: Soil treatment test for upland field. Type of assay: in vivo. Conditions: 500 g/ha, glass house 25° C., 3 weeks. Put shortly:
as §6

The subject of assay [3] is sugar beat. The experiment in a line: Soil treatment test for upland field. Type of assay: in vivo. Conditions: 500 g/ha, glass house 25° C., 3 weeks. The method in brief: as §6
In assay [4] the test system is wheat. Briefly: Soil treatment test for upland field. In kind it is in vivo. The conditions noted are these: 500 g/ha, glass house 25° C., 3 weeks. Put shortly:
as §6

The subject of assay [5] is Large crabgrass. Briefly: Soil treatment test for upland field. Type of assay: in vivo, Digitaria adscendens. The conditions noted are these: 500 g/ha, glass house 25° C., 3 weeks. The method in brief: as §6
Assay [6] concerns green foxtail. The experiment in a line: Soil treatment test for upland field. Type of assay: in vivo, Setaria viridis. The conditions noted are these: 500 g/ha, glass house 25° C., 3 weeks. The method in brief: as §6
The test system of the next assay is blackgrass. The experiment in a line: Soil treatment test for upland field. Type of assay: in vivo, Alopecurus aegualis. The conditions noted are these: 500 g/ha, glass house 25° C., 3 weeks. The method in brief: as §6
The subject of assay [7] is annual bluegrass. The experiment in a line: Soil treatment test for upland field. In kind it is in vivo, Poa annua. Conditions: 500 g/ha, glass house 25° C., 3 weeks. Put shortly:
as §6

Assay [8] has as its system common lambsquartes. The experiment in a line: Soil treatment test for upland field. Type of assay: in vivo, Chenopodium album. The conditions noted are these: 500 g/ha, glass house 25° C., 3 weeks. The method in brief: as §6
The test system of assay [9] is livid amaranth. Briefly: Soil treatment test for upland field. In kind it is in vivo, Amaranthus lividus. The conditions noted are these: 500 g/ha, glass house 25° C., 3 weeks. The method in brief: as §6
The subject of assay [10] is velvetleaf. Briefly: Soil treatment test for upland field. Type of assay: in vivo, Abutilon theophrasti. Conditions: 500 g/ha, glass house 25° C., 3 weeks. Put shortly:
as §6

Assay [11] deals with corn. Briefly: Foliar spread test for upland field. In kind it is in vivo. Conditions: foliar spray 500 ppm, 3 weeks, rank vs non-treated.
Description: as §5
(§7) Wagner pots, each having an area of 1/5000 are, were packed with volcanic ash soil and then each seed of corn, soybean, cotton, wheat, solgum, sugar beat, Large crabgrass, barnyardgrass, green foxtail, blackgrass, annual bluegrass, common lambsquartes, livid amaranth, velvetleaf and morning glory was planted, covered with soil and grown in a glass house at an average temperature of […] for about 2 weeks.
(§8) Each wettable powder of the desired compounds (I) shown in Table 1 prepared in accordance with Example 2 was diluted to 500 ppm with water containing a surfactant (0.5%) and then uniformly sprayed on the above respective plants.
(§9) After these plants were controlled in a glass house at an average temperature of 25° C. for 3 weeks, the herbicidal effects thereof were investigated.
(§10) The herbicidal effects were evaluated according to the evaluation method described in the above (1).

Assay [12] deals with solgum. The experiment in a line: Foliar spread test for upland field. The conditions noted are these: foliar spray 500 ppm, 3 weeks, rank vs non-treated. Type of assay: in vivo.
Description: as §5, §7, §8, §9, §10

Assay [13] relates to sugar beat. The experiment in a line: Foliar spread test for upland field. Type of assay: in vivo. The conditions noted are these: foliar spray 500 ppm, 3 weeks, rank vs non-treated.
Description: as §5, §7, §8, §9, §10

For assay [14], the system named is wheat. Briefly: Foliar spread test for upland field. Type of assay: in vivo. Conditions: foliar spray 500 ppm, 3 weeks, rank vs non-treated.
Description: as §5, §7, §8, §9, §10

For assay [15], the system named is green foxtail. Briefly: Foliar spread test for upland field. In kind it is in vivo, Setaria viridis. The conditions noted are these: foliar spray 500 ppm, 3 weeks, rank vs non-treated.
Description: as §5, §7, §8, §9, §10

The test system of assay [16] is common lambsquartes. Briefly: Foliar spread test for upland field. The conditions noted are these: foliar spray 500 ppm, 3 weeks, rank vs non-treated. Type of assay: in vivo, Chenopodium album.
Description: as §5, §7, §8, §9, §10

In assay [17] the test system is livid amaranth. The experiment in a line: Foliar spread test for upland field. Type of assay: in vivo, Amaranthus lividus. Conditions: foliar spray 500 ppm, 3 weeks, rank vs non-treated.
Description: as §5, §7, §8, §9, §10

Assay [18] deals with velvetleaf. Briefly: Foliar spread test for upland field. In kind it is in vivo, Abutilon theophrasti. The conditions noted are these: foliar spray 500 ppm, 3 weeks, rank vs non-treated.
Description: as §5, §7, §8, §9, §10

The subject of another assay is morning glory. Briefly: Foliar spread test for upland field. In kind it is in vivo, Ipomoea spps. Conditions: foliar spray 500 ppm, 3 weeks, rank vs non-treated.
Description: as §5, §7, §8, §9, §10

Assay [19] concerns barnyardgrass. Briefly: Herbicidal test for paddy field. Type of assay: in vivo, Echinochloa crusgalli. Conditions: paddy field pot, 500 g/ha dropwise at 1.5 leaf stage of barnyardgrass, 3 weeks, rank vs non-treated. Here is the method:
as §1, §2, §3, §4, §5

The subject of assay [20] is barnyardgrass. Briefly: Soil treatment test for upland field. Type of assay: in vivo, Echinochloa crusgalli. The conditions noted are these: 500 g/ha, glass house 25° C., 3 weeks. The method in brief:
as §6

Assay [21] has as its system Large crabgrass. Briefly: Foliar spread test for upland field. Type of assay: in vivo, Digitaria adscendens. Conditions: foliar spray 500 ppm, 3 weeks, rank vs non-treated.
Description: as §5, §7, §8, §9, §10

Assay [22] relates to annual bluegrass. The experiment in a line: Foliar spread test for upland field. Type of assay: in vivo, Poa annua. The conditions noted are these: foliar spray 500 ppm, 3 weeks, rank vs non-treated.
Description: as §5, §7, §8, §9, §10

Consider `CCC(Oc1ccc(F)c(C(F)(F)F)c1)c1nc2cc(C#N)c(C#N)cc2o1` (centres unmarked) [Compound 316], for which the “Effect Young rice plant” value in the assay with young rice plant was 0. In addition, in the assay with bulrush, the “Effect Bulrush” value came out at 3. Moreover, the “Effect Monochoria” value in the assay with monochoria is 5. The “Effects Corn” value amounted to 0 with corn [1] and 2 in the assay on corn [11]. Also, the “Effects Cotton” value with cotton is reported as 0. In addition, the entries for the “Effects Solgum” value with solgum [2] and with solgum [12] were 0 and 1, respectively. In the assay with soybean, the “Effects Soybean” value turned out to be 0. Besides, the “Effects Sugar beat” value in the assay on sugar beat [3] and in the assay with sugar beat [13] was 5 each time. The “Effects Wheat” value turned out to be 0 with wheat [4] and 1 in the assay on wheat [14]. Moreover, the “Effects Large crabgrass” value in the assay with Large crabgrass [5] is given as 5. Moreover, the “Effects Green foxtail” value with green foxtail [6] and in the assay on green foxtail [15] was 5 each time. The “Effects Blackgrass” value in the assay on blackgrass is listed as 4. In the assay with annual bluegrass [7], the “Effects Annual bluegrass” value is 4. Further, the “Effects Common lambsquarters” value with common lambsquartes [8] worked out at 5; with common lambsquartes [16], 3. For the same compound, the “Effects Livid amaranth” value in the assay with livid amaranth [9] and in the assay on livid amaranth [17] was 5 throughout. In addition, the “Effects Velvetleaf” value with velvetleaf [10] was 5; in the assay with velvetleaf [18] it was 3. In addition, the “Effects Morning glory” value in the assay on morning glory is 2.
For the compound `CCC(Oc1cccc(C(F)(F)F)c1)c1nc2cc(C(F)(F)F)ccc2o1` (centres unmarked) [Compound 198], the “Effect Young rice plant” value in the assay with young rice plant came out at 1. Further, in the assay on barnyardgrass [19], the “Effect Barnyardgrass” value is recorded as 4. For the same compound, the “Effect Bulrush” value in the assay with bulrush was 1. For the same compound, in the assay on monochoria, the “Effect Monochoria” value was found to be 5. Also, in the assay with corn [1], the “Effects Corn” value is 2. The “Effects Cotton” value in the assay on cotton is listed as 1. Also, the “Effects Solgum” value in the assay on solgum [2] worked out at 2. The “Effects Sugar beat” value with sugar beat [3] turned out to be 5. Also, in the assay on wheat [4], the “Effects Wheat” value came to 1. The “Effects Large crabgrass” value in the assay with Large crabgrass [5] came out at 5. Moreover, the “Effects Barnyardgrass” value with barnyardgrass [20] came out at 4. For the same compound, the “Effects Green foxtail” value in the assay on green foxtail [6] is reported as 5. In the assay on blackgrass, the “Effects Blackgrass” value was determined as 5. Further, in the assay on annual bluegrass [7], the “Effects Annual bluegrass” value was 5. Moreover, the “Effects Common lambsquarters” value with common lambsquartes [8] amounted to 4. In the assay on livid amaranth [9], the “Effects Livid amaranth” value was 5. For the same compound, in the assay with velvetleaf [10], the “Effects Velvetleaf” value was 3.
On to `CCCC(Oc1cccc(C#N)c1)c1nc2cc(S(C)(=O)=O)c(C)cc2o1` (centres unmarked) [Compound 492], for which the “Effect Young rice plant” value in the assay on young rice plant was 0. Besides, the “Effect Barnyardgrass” value in the assay on barnyardgrass [19] is 2. Besides, the “Effect Bulrush” value in the assay on bulrush came to 3. For the same compound, the “Effect Monochoria” value with monochoria came to 5. For the same compound, in the assay with corn [11], the “Effects Corn” value came out at 1. The “Effects Solgum” value in the assay on solgum [12] came out at 1. Also, in the assay with sugar beat [13], the “Effects Sugar beat” value is given as 4. The “Effects Wheat” value with wheat [14] turned out to be 1. For the same compound, the “Effects Green foxtail” value with green foxtail [15] turned out to be 2. Besides, the “Effects Livid amaranth” value in the assay with livid amaranth [17] turned out to be 4. For the same compound, the “Effects Velvetleaf” value in the assay with velvetleaf [18] was found to be 3.
Turning to `CCC(Oc1ccc(F)c(C(F)(F)F)c1)c1nc2cc(OC)ccc2o1` (centres unmarked) [Compound 503], the “Effects Corn” value with corn [1] and with corn [11] was 2 throughout. Moreover, the “Effects Cotton” value in the assay on cotton was found to be 1. Besides, the “Effects Solgum” value with solgum [2] and with solgum [12] was 2 throughout. Also, in the assay with soybean, the “Effects Soybean” value is 1. Besides, the “Effects Sugar beat” value in the assay with sugar beat [3] turned out to be 5; in the assay with sugar beat [13], 4. The “Effects Wheat” value in the assay with wheat [4] and with wheat [14] was 2 each time. Also, the “Effects Large crabgrass” value in the assay with Large crabgrass [5] amounted to 5; in the assay on Large crabgrass [21], 3. Besides, in the assay on barnyardgrass [20], the “Effects Barnyardgrass” value was found to be 5. In addition, the “Effects Green foxtail” value in the assay on green foxtail [6] and in the assay on green foxtail [15] was 5 in each case. Besides, the “Effects Blackgrass” value in the assay with blackgrass is reported as 5. In addition, the “Effects Annual bluegrass” value with annual bluegrass [7] amounted to 5; with annual bluegrass [22], 3. For the same compound, the “Effects Common lambsquarters” value in the assay on common lambsquartes [8] and with common lambsquartes [16] was 5 in each case. Further, the “Effects Livid amaranth” value in the assay on livid amaranth [9] and with livid amaranth [17] was 5 in each case. In addition, the “Effects Velvetleaf” value in the assay with velvetleaf [10] was 5; in the assay with velvetleaf [18] it was 3.
